Here are results for 2 compounds from US10626116B2, “Crystalline form of BTK kinase inhibitor and preparation method thereof” (Jiangsu Hengrui Medicine Co., Ltd., priority 2016, dated 2020).

Molecules are shown by their SMILES.

Data set [1] can be described thus: Stability under lighting, heating and high humidity; purity detected by HPLC. The format is physicochemical. The settings on record: for Purity by HPLC, 40° C.: heating 40° C.; for Purity by HPLC, 40° C. / Purity by HPLC, 60° C. / Purity by HPLC, RH 75% / Purity by HPLC, RH 90% / Purity by HPLC, Lighting: spread flat in the air; for Purity by HPLC, 60° C.: heating 60° C.; for Purity by HPLC, RH 75%: high humidity RH 75%; for Purity by HPLC, RH 90%: high humidity RH 90%; for Purity by HPLC, Lighting: lighting 4500 Lux. The method, then: The sample of amorphous form prepared in Example 1 and the sample of crystal form I prepared in Example 2 were spread flat in the air to test their stability under conditions of lighting (4500 Lux), heating (40° C., 60° C.), and high humidity (RH 75%, RH 90%), respectively. Samplings were carried out on Day 5 and Day 10.

Data set [2] can be described thus: Special stability study of crystal form I (grinding, heating, tableting). The format is physicochemical. An excerpt: Crystal form I of the compound of formula (I) prepared according to the method of Example 2 was ground, heated and tableted.
Setting [3] is: Grinding treatment for 10 minutes in a mortar under nitrogen atmosphere, batch 20150427G.
The mark [4] stands for this setting: Heating treatment for 3 hours at 80° C., batch 20150427H.
[5] abbreviates: Tableting treatment, batch 20150427P.

`CC#CC(=O)N1CC[C@@H](n2cc(-c3ccc(Oc4c(F)cccc4F)cc3)c3c(N)n[nH]c(=O)c32)C1` [Amorphous form, (R)-4-amino-1-(1-(but-2-ynoyl)pyrrolidin-3-yl)-3-(4-(2,6-difluorophenoxy)phenyl)-1H-pyrrolo[2,3-d]pyridazin-7(6H)-one]: in data set [1] (Day 0), the “Purity by HPLC, 40° C.” value amounted to 97.70%; the “Purity by HPLC, 60° C.” value is given as 97.70%; the “Purity by HPLC, RH 75%” value was 97.70%; the “Purity by HPLC, RH 90%” value amounted to 97.70%. Besides, the “Purity by HPLC, Lighting” value in data set [1] (Day 0) is reported as 97.70%. For the same compound, in data set [1] (Day 5), the “Purity by HPLC, 40° C.” value came to 97.64%; the “Purity by HPLC, 60° C.” value was determined as 97.68%; the “Purity by HPLC, RH 75%” value was determined as 97.52%; the “Purity by HPLC, RH 90%” value is on record as 97.50%. Further, the “Purity by HPLC, Lighting” value in data set [1] (Day 5) was found to be 97.67%. Moreover, in data set [1] (Day 10), the “Purity by HPLC, 40° C.” value was determined as 97.57%; the “Purity by HPLC, 60° C.” value was 97.52%; the “Purity by HPLC, RH 75%” value was determined as 97.59%; the “Purity by HPLC, RH 90%” value is recorded as 97.48%. The “Purity by HPLC, Lighting” value in data set [1] (Day 10) was found to be 97.62%.

`CC#CC(=O)N1CC[C@@H](n2cc(-c3ccc(Oc4c(F)cccc4F)cc3)c3c(N)n[nH]c(=O)c32)C1` [Crystal form I, (R)-4-amino-1-(1-(but-2-ynoyl)pyrrolidin-3-yl)-3-(4-(2,6-difluorophenoxy)phenyl)-1H-pyrrolo[2,3-d]pyridazin-7(6H)-one]: in data set [2] (setting [3]), the “Crystal form after treatment” value was “Crystal” and the “DSC peak after treatment” value amounted to 239.32 °C. In data set [2] (setting [4]), the “Crystal form after treatment” value is on record as “Crystal” and the “DSC peak after treatment” value amounted to 238.98 °C. For the same compound, in data set [2] (setting [5]), the “Crystal form after treatment” value is “Crystal” and the “DSC peak after treatment” value was determined as 241.19 °C. Moreover, the “Stability of the crystal form” value in data set [2] (ground, heated and tableted (grinding, pressure and heating)) was “stable”. In data set [1] (conditions of lighting, high temperature and high humidity), the “Stability compared with the amorphous sample” value is given as “significantly better than that of the amorphous sample”. Also, in data set [1] (Day 0), the “Purity by HPLC, 40° C.” value was determined as 99.21%; the “Purity by HPLC, 60° C.” value came to 99.21%; the “Purity by HPLC, RH 75%” value was 99.21%; the “Purity by HPLC, RH 90%” value is 99.21%. In data set [1] (Day 0), the “Purity by HPLC, Lighting” value came out at 99.21%. Moreover, in data set [1] (Day 5), the “Purity by HPLC, 40° C.” value worked out at 99.28%; the “Purity by HPLC, 60° C.” value came to 99.26%; the “Purity by HPLC, RH 75%” value is recorded as 99.30%; the “Purity by HPLC, RH 90%” value stood at 99.30%. Also, in data set [1] (Day 5), the “Purity by HPLC, Lighting” value is recorded as 99.26%. In data set [1] (Day 10), the “Purity by HPLC, 40° C.” value is given as 99.35%; the “Purity by HPLC, 60° C.” value was found to be 99.25%; the “Purity by HPLC, RH 75%” value came to 99.25%; the “Purity by HPLC, RH 90%” value worked out at 99.32%. Further, in data set [1] (Day 10), the “Purity by HPLC, Lighting” value is recorded as 99.25%.
